Results reported in US20120071536A1, “N-[(2-AZABICYCLO[2.1.1]HEX-1-YL)-ARYL-METHYL]-BENZAMIDE DERIVATIVES, PREPARATION THEREOF, AND THERAPEUTIC USE THEREOF” (SANOFI, priority 2009, published 2012).
Structures can show the parent of a compound that is named as a salt.

melting point [°C]	SMILES
244 to 245.5	O=C(NC(c1ccccc1)C12CC(CN1Cc1ccccc1)C2)c1cccc(C(F)(F)F)c1Cl (racemic) (as salt: HCl) [Compound 33, N-[(2-Benzyl-2-azabicyclo[2.1.1]hex-1-yl)(phenyl)methyl]-2-chloro-3-(trifluoromethyl)-benzamide]
264 to 265	CCc1ccccc1C(=O)NC(c1ccccc1)C12CC(CN1)C2 (racemic) (as salt: HCl) [Compound 28, N-[(2-Azabicyclo[2.1.1]hex-1-yl)(phenyl)methyl]-2-ethylbenzamide]
146 to 147	Cc1cccc(C(NC(=O)c2c(Cl)ccc(C(F)(F)F)c2Cl)C23CC(CN2)C3)c1 (racemic) (as salt: HCl) [Compound 29, N-[(2-Azabicyclo[2.1.1]hex-1-yl)(m-tolyl)methyl]-2,6-dichloro-3-(trifluoromethyl)-benzamide]
200 to 201	Cc1c(C(F)(F)F)ccc(Cl)c1C(=O)NC(c1ccccc1)C12CC(CN1)C2 (racemic) (as salt: HCl) [Compound 32, N-[(2-Azabicyclo[2.1.1]hex-1-yl)(phenyl)methyl]-6-chloro-2-methyl-3-(trifluoromethyl)-benzamide]
212 to 214	CCN1CC2CC1(C(NC(=O)c1c(C)cccc1C)c1ccccc1)C2 (racemic) (as salt: HCl) [Compound 30, N-[(2-Ethyl-2-azabicyclo[2.1.1]hex-1-yl)(phenyl)methyl]-2,6-dimethylbenzamide]
187 to 188	O=C(NC(c1cccc(O)c1)C12CC(CN1)C2)c1cccc(C(F)(F)F)c1Cl (racemic) (as salt: HCl) [Compound 24, N-[(2-Azabicyclo[2.1.1]hex-1-yl)(3-hydroxyphenyl)methyl]-2-chloro-3-(trifluoromethyl)-benzamide]

Second part, the molecule before the results:

SMILES	melting point [°C]
C=CCN1CC2CC1(C(NC(=O)c1cc(Br)c(Cl)cc1N)c1ccccc1)C2 (racemic) [Compound 20, N-[(2-Allyl-2-azabicyclo[2.1.1]hex-1-yl)(phenyl)methyl]-2-amino-5-bromo-4-chloro-benzamide]	66 to 67
Cl.O=C(NC(c1ccccc1)C12CC(CN1)C2)c1cc(C(F)(F)F)ccc1Cl (racemic)	162.5 to 163.5
CCN1CC2CC1(C(NC(=O)c1cccc(C(F)(F)F)c1Cl)c1ccccc1)C2.Cl (racemic)	152 to 155
Cc1c(C(=O)NC(c2ccccc2)C23CC(CN2)C3)cccc1C(F)(F)F (racemic) [Compound 7, N-[(2-Azabicyclo[2.1.1]hex-1-yl)(phenyl)methyl]-2-methyl-3-(trifluoromethyl)-benzamide]	146 to 147
O=C(NC(c1ccccc1)C12CC(CN1)C2)c1cccc(C(F)(F)F)c1Cl (single isomer, unassigned; (+)) (as salt: HCl) [Compound 14, (+)-N-[(2-Azabicyclo[2.1.1]hex-1-yl)(phenyl)methyl]-2-chloro-3-(trifluoromethyl)-benzamide]	160 to 170
Cc1cccc(C(=O)NC(c2ccccc2)C23CC(CN2)C3)c1Cl (racemic) [Compound 12, N-[(2-Azabicyclo[2.1.1]hex-1-yl)(phenyl)methyl]-2-chloro-3-methylbenzamide]	139.5 to 140.5
O=C(NC(c1cccc(C(F)(F)F)c1)C12CC(CN1)C2)c1cccc(C(F)(F)F)c1Cl (racemic) (as salt: HCl) [Compound 4, N-[(2-Azabicyclo[2.1.1]hex-1-yl)[3-(trifluoromethyl)phenyl]methyl]-2-chloro-3-(trifluoromethyl)benzamide]	214 to 217
Cc1ccc(F)c(C(=O)NC(c2ccccc2)C23CC(CN2)C3)c1Cl (racemic) [Compound 10, N-[(2-Azabicyclo[2.1.1]hex-1-yl)(phenyl)methyl]-2-chloro-6-fluoro-3-methylbenzamide]	123 to 124
